Results from US20080261994A1, “CYCLOPROPANE COMPOUNDS AND PHARMACEUTICAL USE THEREOF” (Japan Tobacco Inc., priority 2003, published 2008).
Where two headings read alike, the source gives them in different places.

Experiments:
MMP-1 = molecular target: T1, MMP-1 (Homo sapiens, UniProt P03956); experiment: MMP-1 inhibitory action (Type I collagen Activity Measurement kit, FITC-labeled collagen type I); type: biochemical
T1 sequence (P03956 100-469): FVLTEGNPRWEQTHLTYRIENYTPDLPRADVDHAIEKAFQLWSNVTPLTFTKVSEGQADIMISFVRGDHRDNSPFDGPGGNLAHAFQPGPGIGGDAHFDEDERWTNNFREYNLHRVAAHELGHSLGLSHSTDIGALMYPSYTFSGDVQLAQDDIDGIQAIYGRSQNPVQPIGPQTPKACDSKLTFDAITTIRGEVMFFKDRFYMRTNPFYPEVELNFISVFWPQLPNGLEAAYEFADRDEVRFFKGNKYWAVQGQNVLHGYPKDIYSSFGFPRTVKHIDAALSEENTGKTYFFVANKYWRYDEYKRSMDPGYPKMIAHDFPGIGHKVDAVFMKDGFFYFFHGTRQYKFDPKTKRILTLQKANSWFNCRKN
Experimental: For MMP-1 Assay, Type I collagen Activity Measurement kit (YAGAI YU-72013) modified to a 96-well plate format was used.
The principle of the kit is based on the property of collagen that becomes soluble in ethanol after being cleaved by MMP-1.
(§1) The enzyme and substrate were diluted with Tris-HCl buffer, and test compounds were diluted with dimethyl sulfoxide (DMSO).
The enzyme and test compounds were added into 96-well plate, and fluorescein isothiocianate (FITC)-labeled collagen type I was added as a substrate and the mixture was incubated at 37° C. for 3 hr.
The reaction was terminated by addition of Tris-HCl buffer containing ethanol. After centrifugation, the supernatant containing denatured substrate was transferred to another 96-well plate. The collagenase activity of MMP-1 was determined by measuring FITC fluorescence intensity (excitation wavelength 485 nm, emission wavelength 530 nm) of each well. The inhibitory activity of the compound in each well (%) was calculated based on the values of enzyme-free well and inhibitor-free well. The inhibitory activity of the compound was represented as IC50 (μM).

aggrecanase-1 = molecular target: T2, aggrecanase-1 (Homo sapiens, UniProt O75173); experiment: Aggrecanase-1 inhibitory action (Particle Assay, GAG release from aggrecan-containing polyacrylamide particles); type: biochemical
T2 sequence (O75173 213-837): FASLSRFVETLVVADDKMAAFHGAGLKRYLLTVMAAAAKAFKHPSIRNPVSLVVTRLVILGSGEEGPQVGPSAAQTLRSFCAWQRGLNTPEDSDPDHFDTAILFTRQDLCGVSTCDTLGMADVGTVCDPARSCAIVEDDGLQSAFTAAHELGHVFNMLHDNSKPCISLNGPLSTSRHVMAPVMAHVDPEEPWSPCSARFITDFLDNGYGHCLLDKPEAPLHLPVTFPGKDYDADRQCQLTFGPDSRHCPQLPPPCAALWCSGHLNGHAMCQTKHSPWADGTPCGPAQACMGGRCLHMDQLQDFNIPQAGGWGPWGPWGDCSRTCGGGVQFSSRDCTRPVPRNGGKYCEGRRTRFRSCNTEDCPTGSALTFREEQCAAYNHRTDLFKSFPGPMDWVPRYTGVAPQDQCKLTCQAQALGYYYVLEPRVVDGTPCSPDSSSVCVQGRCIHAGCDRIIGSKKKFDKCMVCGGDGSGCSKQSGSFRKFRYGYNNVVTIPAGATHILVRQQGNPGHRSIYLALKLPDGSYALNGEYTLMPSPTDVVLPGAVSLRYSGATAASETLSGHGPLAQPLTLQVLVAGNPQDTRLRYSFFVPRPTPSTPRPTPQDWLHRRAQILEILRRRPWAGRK
Experimental: Particle Assay was used for determination of aggrecanase activity.
as §1
Test compounds and the enzyme were added into 96-well plate, and polyacrylamide particles containing aggrecan were added as a substrate and the mixture was incubated at 37° C. for 15 hr.
After incubation, the supernatant was transferred to another plate, and mixed with 1,9-dimethylmethylene blue. The absorbence at 595 nm was measured to quantify the amount of glycosaminoglycan (GAG) released in the reaction supernatant. Whale chondroitin sulfate was used as the standard of GAG. The inhibitory activity of the compound in each well (%) was calculated based on the values of enzyme-free well and inhibitor-free well. The inhibitory activity of the compound was represented as […] (μM).

[1] = MMP-1 inhibitory action, FITC-labeled collagen type I, 37° C. for 3 hr, read-out: IC50 MMP1 (Experimental Example 2)
[2] = aggrecanase-1 inhibitory action, read-out: IC50 AG1 (Experimental Example 1)
[3] = Experimental Example 2, read-out: IC50 MMP1
[4] = Experimental Example 1, read-out: IC50 AG1

Row | SMILES | IC50 (MMP-1; [1]) | IC50 (aggrecanase-1; [2]) | IC50 (MMP-1; [3]) | IC50 (aggrecanase-1; [4])
1 | O=C(O)[C@@]1(NS(=O)(=O)c2ccc(-c3ccc(Cl)cc3)cc2)C[C@H]1c1ccccc1 [Example 1-7] | ≥ 10 µM | < 1 µM | – | –
2 | O=C(O)C1(NS(=O)(=O)c2ccc(-c3ccc(Cl)cc3)cc2)CC1c1cccc(NCc2ccccc2)c1 (centres unmarked) [Example 1-43] | ≥ 1 µM | < 1 µM | – | –
3 | O=C(O)C1(NS(=O)(=O)c2ccc3c(c2)Cc2cc(F)ccc2-3)CC1c1ccccc1 (centres unmarked) [Example 1-80] | ≥ 10 µM | < 0.1 µM | – | –
4 | O=C(O)[C@]1(NS(=O)(=O)c2ccc(-c3ccc(Cl)cc3Cl)s2)C[C@@H]1c1ccccc1 [Example 1-125] | ≥ 10 µM | < 0.1 µM | – | –
5 | O=C1O[C@H]([C@H]2C[C@@]2(NS(=O)(=O)c2ccc(-c3ccc(Cl)cc3)s2)C(=O)O)CN1Cc1ccccc1 [Example 2-138] | – | ≥ 10 µM | – | –
6 | CC(C)(C)OC(=O)N1CCC(Nc2cccc(C3CC3(NS(=O)(=O)c3ccc(-c4ccc(Cl)cc4)cc3)C(=O)O)c2)CC1 (centres unmarked) [Example 1-42] | ≥ 1 µM | < 1 µM | – | –
7 | COc1ccccc1C1CC1(NS(=O)(=O)c1ccc(-c2ccc(Cl)cc2)s1)C(=O)O (centres unmarked) [Example 1-4] | ≥ 1 µM | < 0.1 µM | – | –
8 | O=C(CO)Nc1cccc(C2CC2(NS(=O)(=O)c2ccc(-c3ccc(Cl)cc3)cc2)C(=O)O)c1 (centres unmarked) [Example 1-105] | ≥ 1 µM | < 1 µM | – | –
9 | NC(=O)c1cccc(C2CC2(NS(=O)(=O)c2ccc(-c3ccc(Cl)cc3)s2)C(=O)O)c1 (centres unmarked) [Example 1-137] | ≥ 1 µM | < 1 µM | – | –
10 | CN1CCC(N(C)Cc2cccc(C3CC3(NS(=O)(=O)c3ccc(-c4ccc(Cl)cc4)s3)C(=O)O)c2)CC1 (centres unmarked) [Example 1-104] | ≥ 10 µM | < 1 µM | – | –
11 | O=C(O)[C@]1(NS(=O)(=O)c2ccc(-c3csc4ccccc34)s2)C[C@@H]1c1ccccc1 [Example 2-118] | ≥ 1 µM | ≥ 1 µM | – | –
12 | COc1ccccc1C1CC1(NS(=O)(=O)c1ccc(-c2ccc(Cl)cc2)cc1)C(=O)O (centres unmarked) [Example 1-13] | ≥ 1 µM | < 1 µM | – | –
13 | O=C(O)C1(NS(=O)(=O)c2ccc(-c3ccc(Cl)cc3)cc2)CC1c1cccc(NCc2ncc[nH]2)c1 (centres unmarked) [Example 1-112] | ≥ 1 µM | < 1 µM | – | –
14 | Cc1nc2cc(-c3ccc(S(=O)(=O)N[C@@]4(C(=O)O)C(C)[C@@H]4c4ccccc4)s3)ccc2s1 (some centres unmarked) [Example 2-469] | – | – | ≥ 10 µM | ≥ 1 µM
15 | CN(C)C(=O)COc1cccc(C2CC2(NS(=O)(=O)c2ccc(-c3ccc(Cl)cc3)cc2)C(=O)O)c1 (centres unmarked) [Example 1-114] | ≥ 1 µM | < 1 µM | – | –
16 | O=C(O)[C@]1(NS(=O)(=O)c2ccc(-c3cc4ccccc4o3)s2)C[C@@H]1c1ccccc1 [Example 2-122] | < 1 µM | ≥ 1 µM | – | –
17 | C[C@]1(c2ccccc2)C[C@@]1(NS(=O)(=O)c1ccc(-c2cccc(OCCO)c2)s1)C(=O)O [Example 2-575] | – | – | – | ≥ 1 µM
18 | CC(C)NC(=O)COc1ccccc1C1CC1(NS(=O)(=O)c1ccc(-c2ccc(Cl)cc2)s1)C(=O)O (centres unmarked) [Example 1-147] | ≥ 10 µM | < 1 µM | – | –
19 | Cn1ccnc1CNc1cccc(C2CC2(NS(=O)(=O)c2ccc(-c3ccc(Cl)cc3)cc2)C(=O)O)c1 (centres unmarked) [Example 1-101] | ≥ 10 µM | < 1 µM | – | –
20 | CC1[C@](C)(c2ccccc2)[C@]1(NS(=O)(=O)c1ccc(-c2cc(C(C)(F)F)on2)s1)C(=O)O (some centres unmarked) [Example 2-625] | – | – | – | < 0.1 µM
21 | Cc1cnc(-c2ccc(S(=O)(=O)N[C@@]3(C(=O)O)C[C@@H]3c3ccccc3)s2)s1 [Example 2-26] | ≥ 10 µM | < 1 µM | – | –
22 | O=C(O)C1(NS(=O)(=O)c2ccc(-c3ccc(Br)cc3)cc2)CC1c1ccccc1 (centres unmarked) [Example 1-31] | ≥ 10 µM | < 1 µM | – | –
23 | O=C(O)[C@]1(NS(=O)(=O)c2cnc(-c3ccc(Cl)cc3)s2)C[C@@H]1c1ccccc1 [Example 1-100] | ≥ 1 µM | < 1 µM | – | –

Row | SMILES | IC50 (MMP-1; [1]) | IC50 (aggrecanase-1; [2]) | IC50 (MMP-1; [3]) | IC50 (aggrecanase-1; [4])
24 | CNC(=O)COc1cccc(C2CC2(NS(=O)(=O)c2ccc(-c3ccc(Cl)cc3)cc2)C(=O)O)c1 (centres unmarked) [Example 1-118] | ≥ 1 µM | < 0.1 µM | – | –
25 | COc1cccc([C@@]2(C)C[C@@]2(NS(=O)(=O)c2ccc(-c3cc(C(F)(F)F)on3)s2)C(=O)O)c1 [Example 2-624] | – | – | – | < 0.1 µM
26 | O=C1Nc2ccccc2C2CC12NS(=O)(=O)c1ccc(-c2ccc(Cl)cc2)s1 (centres unmarked) [Example 2-218] | ≥ 10 µM | ≥ 1 µM | – | –
27 | O=C(O)[C@]1(NS(=O)(=O)c2ccc(-c3cccc(Cl)c3)s2)C[C@@H]1c1ccccc1 [Example 1-110] | ≥ 1 µM | < 1 µM | – | –
28 | C[C@]1(c2ccccc2)C[C@@]1(NS(=O)(=O)c1ccc(-c2cccc(OCCCO)c2)s1)C(=O)O [Example 2-576] | – | – | – | ≥ 1 µM
29 | O=C(O)[C@]1(NS(=O)(=O)c2ccc(-c3ccc(C(F)F)s3)s2)C[C@@H]1c1ccccc1 [Example 2-102] | < 1 µM | < 1 µM | – | –
30 | CC1[C@H](c2ccccc2)[C@]1(NS(=O)(=O)c1ccc(-c2nc3cc(Cl)ccc3[nH]2)s1)C(=O)O (some centres unmarked) [Example 2-604] | – | – | ≥ 1 µM | < 1 µM
31 | NC(=O)Nc1cccc(C2CC2(NS(=O)(=O)c2ccc(-c3ccc(Cl)cc3)s2)C(=O)O)c1 (centres unmarked) [Example 1-135] | ≥ 1 µM | < 1 µM | – | –
32 | O=C(O)C1(NS(=O)(=O)c2ccc(-c3ccc(Cl)cc3)cc2)CC1c1cccc(O)c1 (centres unmarked) [Example 1-44] | ≥ 1 µM | < 1 µM | – | –
33 | CN(C)c1cccc(C2CC2(NS(=O)(=O)c2ccc(-c3ccc(Cl)cc3)cc2)C(=O)O)c1 (centres unmarked) [Example 1-21] | ≥ 1 µM | < 1 µM | – | –
34 | O=C(O)C1(NS(=O)(=O)c2ccc(-c3ccc(Cl)cc3)s2)CC1c1cccnc1 (centres unmarked) [Example 2-70] | ≥ 10 µM | < 1 µM | – | –
35 | O=C(COc1ccccc1C1CC1(NS(=O)(=O)c1ccc(-c2ccc(Cl)cc2)s1)C(=O)O)NCc1ccccc1 (centres unmarked) [Example 1-145] | ≥ 10 µM | < 1 µM | – | –
36 | Cc1cnc(-c2ccc(S(=O)(=O)N[C@@]3(C(=O)O)C[C@]3(C)c3ccccc3)s2)o1 [Example 2-418] | – | – | ≥ 1 µM | ≥ 1 µM
37 | COc1ccc(-c2ccc(S(=O)(=O)N[C@@]3(C(=O)O)C[C@]3(C)c3ccccc3)s2)cc1CO [Example 2-592] | – | – | – | ≥ 1 µM
38 | O=C(O)C1(NS(=O)(=O)c2ccc(-c3ccc(Cl)cc3)cc2)CC1c1ccccc1Oc1ccccc1 (centres unmarked) [Example 1-14] | ≥ 10 µM | < 1 µM | – | –
39 | O=C(O)C1(NS(=O)(=O)c2ccc(-c3ccc(Cl)cc3)s2)CC1c1ccccc1Br (centres unmarked) [Example 2-167] | ≥ 10 µM | < 1 µM | – | –
40 | O=C(O)C1(NS(=O)(=O)N2CCc3nc(-c4ccccc4)ncc3C2)CC1c1ccccc1 (centres unmarked) [Example 2-127] | ≥ 10 µM | ≥ 10 µM | – | –
41 | COc1cccc(C2CC2(NS(=O)(=O)c2ccc(-c3ccc(Cl)cc3)s2)C(=O)O)c1 (centres unmarked) [Example 1-115] | ≥ 1 µM | < 1 µM | – | –
42 | NC(=O)COc1cccc(C2CC2(NS(=O)(=O)c2ccc(-c3ccc(Cl)cc3)cc2)C(=O)O)c1 (centres unmarked) [Example 1-117] | ≥ 1 µM | < 0.1 µM | – | –
43 | CC(=O)Nc1ccc(-c2ccc(S(=O)(=O)N[C@@]3(C(=O)O)C[C@]3(C)c3ccccc3)s2)cc1 [Example 2-402] | – | – | ≥ 10 µM | ≥ 1 µM
44 | O=C(O)C1(NS(=O)(=O)c2ccc(OCc3ccc(Cl)cc3Cl)cc2)CC1c1ccccc1 (centres unmarked) [Example 1-65] | ≥ 10 µM | – | – | –
45 | Cc1cnc(-c2ccc(S(=O)(=O)N[C@@]3(C(=O)O)C(C)[C@@H]3c3ccccc3)s2)o1 (some centres unmarked) [Example 2-417] | – | – | ≥ 1 µM | < 1 µM
